Laboratory results from patent US7300784B2 (priority 2001, dated 2007).
Read-outs that look alike come from different tables or passages of the source.

Columns and labels:
Format in all cases: biochemical
[1] = system: nitrile hydratase of Rhodococcus sp. Cr4
Method: (§1) The standard assay method for the nitrile hydratase activity used in the following Examples as follows. The enzyme reaction is initiated by adding 3-cyanopyridine or 2-hydroxy-4-methylthiobutyronitrile (HMBN) as the substrate compound. In the case of 3-cyanopyridine, incubation was continued at 20° C. for 10 minute, in the case of HMBN, at 20° C. for 15 minutes. When 3-cyanopyridine was used in the reaction, 0.1 ml of 2 N hydrochloric acid was added to the reaction and the mixture was shaken vigorously to stop the reaction; when HMBN was used in the reaction, 0.1 ml of the reaction solution was added to 0.9 ml of 0.1% (v/v) phosphoric acid and the mixture was shaken vigorously to stop the reaction. The reaction solution was analyzed by HPLC.
• 10% (v/v) HMBN was added to initiate the reaction. • The mixture was incubated with shaking at 20° C. for 10 minutes. • 0.1% (v/v) H3PO4 was added to stop the reaction. • Centrifugation. • HPLC analysis.
Inhibitors to the enzyme were studied. With the standard composition of reaction solution shown in Table 1, various inhibitors were added at a final concentration 1.0 mM or 0.1 mM to the solutions containing 2.92 U enzyme; after the mixtures were incubated at 20° C. for 10 minutes, the reaction was carried out for 15 minutes.

[2] = system: nitrile hydratase of Rhodococcus sp. Cr4; remark: listed apart in the source
[3] = system: nitrile hydratase of Rhodococcus sp. Cr4; assay: Substrate specificity of the purified nitrile hydratase (amide formation by HPLC)
Method: as §1
• 0.3 M 3-cyanopyridine was added to initiate the reaction. • The mixture was incubated with shaking at 20° C. for […]. • 2 N HCl was added to stop the reaction. • Centrifugation. • HPLC analysis.
The substrate specificity of the enzymewas examined. With the standard composition reaction solution shown in table 2, 2.92 U enzyme was incubated with various types of substrates, instead of 3-cyanopyridine; the generation of amides in the reaction solution was analyzed by HPLC. Thus, the relative activity was determined. The types of substrate compounds added, final concentrations thereof, reaction times, and HPLC conditions used for the analyses of products corresponding to the respective substrates are shown in Table 6. The HPLC conditions (1)-(9) are indicated next to Table 6.
The conditions for HPLC were as follows: • (1) Column: Waters Spherisorb 5 μODS2 (4.6×150 mm); • Solvent: 10 mM KH2PO4(pH 2.8)/acetonitrile (v/v)=9:1; • Flow rate: 1.0 ml/min; • Detection: 230 nm; • Injection volume: 5 μl. • (2) Column: Waters Spherisorb 5 μODS2 (4.6×150 mm); • Solvent: 10 mM KH2PO4(pH 2.8)/acetonitrile (v/v)=9:1; • Flow rate: 1.0 ml/min; • Detection: 230 nm; • Injection volume:5 μl. • (3) Column: Waters Spherisorb 5 μODS2 (4.6×150 mm); • Solvent: 5 mM KH2PO4 (pH 2.8)/acetonitrile (v/v)=12:7; • Flow rate: 1.0 ml/min; • Detection: 230 nm; • Injection volume: 5 μl. • (4) Column: Waters Spherisorb 5 μODS2 (4.6×150 mm); • Solvent: 10 mM KH2PO4(pH 2.5)/acetonitrile (v/v)=99:1; • Flow rate: 1.0 ml/min; • Detection: 210 nm; • Injection volume: 5 μl. • (5) Column: Waters Spherisorb 5 μODS2 (4.6×150 mm); • Solvent: 10 mM KH2PO4(pH 2.5)/acetonitrile (v/v)=99:1; • Flow rate: 1.0 ml/min; • Detection: 230 nm; • Injection volume: 5 μl. • (6) Column: Spherisorb S5ODS2 (4.6×150 mm) • Solvent: 0.1% (v/v) phosphate/acetonitrile (v/v)=99:1; • Flow rate: 1.0 ml/min; • Detection: 210 nm; • Injection volume: 5 μl. • (7) Column: Spherisorb S5ODS2 (4.6×150 mm); • Solvent: 0.1% (v/v) phosphate/acetonitrile (v/v)=9:1; • Flow rate: 1.0 ml/min; • Detection: 210 nm; • Injection volume: 5 μl; • Temperature: 40° C. • (8) Column: Spherisorb S5ODS2 (4.6×150 mm); • Solvent: 0.1%(v/v) phosphate/acetonitrile (v/v)=9:1; • Flow rate: 1.0 ml/min; • Detection: 230 nm; • Injection volume: 5 μl • Temperature: 40° C. • (9) Column: Spherisorb S5ODS2 (4.6×150 mm); • Solvent: 5 mM KH2PO4 (pH 2.8)/acetonitrile (v/v)=12:7; • Flow rate: 1.0 ml/min; • Detection: 210 nm; • Injection volume: 5 μl; • Temperature: 40° C. 13. The Effect of Inhibitors on the Enzymatic Activity

[4] = system: nitrile hydratase of Rhodococcus sp. Cr4; assay: Effect of coexisting Ni++ ion with various substrates
Method: Then, with the standard composition of reaction solution shown in table 2, various types of substrates, instead of 3-cyanopyridine, were added to the solutions containing 2.92 U enzyme to study their effects on the activity. […] The addition of Ni^++ ion was assumed to specifically enhance the reaction efficiency when the substrate was a α-hydroxynitrile (Table 11).
The incubation was prolonged for 10 minutes at 20° C. using 2.92 U enzyme. 17. Determination of N-Terminal Amino Acid Sequence

[5] = system: nitrile hydratase of Rhodococcus sp. Cr4; assay: Effect of substrate concentration (Km value, Lineweaver-Burk plot); settings: 20° C., 15 minutes
Method: The Km value for HMBN was determined from the S-V plot (FIG. 4) and Lineweaver-Burk plot (FIG. 5). 0.0585 U of the enzyme was added to solutions containing HMBN at various concentrations and the reactions were incubated at 20° C. for 15 minutes. The reactions were analyzed by HPLC.
In addition, the Km value for 3-cyanopyridine was determined from the S-V plot (FIG. 6) and Lineweaver-Burk plot (FIG. 7). Similarly, 0.0265 U of the enzyme was added to solutions containing 3-cyanopyridine at various concentrations and the reactions were incubated at 20° C. for 15 minutes. The reactions were analyzed by HPLC.

[6] = compound 1.0 mM, Free = 100, HMBN substrate, 20° C.
[7] = compound used as substrate, activity for 3-cyanopyridine = 100%, 20° C., 2.92 U enzyme
[8] = compound used as substrate, methanol added (final conc. 20% v/v), 20° C., 2.92 U enzyme

O=S(=O)(O)c1cc(O)c(O)c(S(=O)(=O)O)c1 [Tiron]
Relative activity (%) [1, 6]: 132%

O=[N+]([O-])[O-].[Ag+] [AgNO3]
Relative activity (%) [2]: 7.85%
effect on enzyme activity (words) [2]: markedly inhibited

N#Cc1cnccn1 [Cyanopyrazine]
Relative activity (%) [3, 7]: 114%

C/C(N)=C/C#N [β-aminochlotononitlile]
activity, Free [4]: 0
activity, NiCl2 (1 mM) [4]: 0

[Cl][Fe]([Cl])[Cl] [FeCl3]
Relative activity (%) [2]: 100%

[Ca+2].[Cl-].[Cl-] [CaCl2]
Relative activity (%) [2]: 96.4%

N#CCC(N)=O [2-Cyanoacetamide]
Relative activity (%) [3, 7]: 46.3%

O=C(O)c1cc(SSc2ccc([N+](=O)[O-])c(C(=O)O)c2)ccc1[N+](=O)[O-] [5-5′-Dithiobis]
Relative activity (%) [1]: 99.1%

CCN1C(=O)C=CC1=O [N-Ethylmaleimide]
Relative activity (%) [1, 6]: 101%

O[C@H](CS)[C@H](O)CS (racemic) [Dithiothreitol]
Relative activity (%) [1, 6]: 93.4%

N#CCN [Aminoacetonitlile]
activity, Free [4]: 0
activity, NiCl2 (1 mM) [4]: 0

N#Cc1ccccc1Cl [o-Chlorobenzonitrile]
Relative activity (%) [3, 8]: 58.6%

N#Cc1cccc(Cl)c1 [m-Chlorobenzonitrile]
Relative activity (%) [3]: 7.18%

N#Cc1cccnc1 [3-Cyanopyridine]
Relative activity (%) [3, 7]: 100%
Relative activity (%) [3, 8]: 76.5%
Km [5]: 1380 µM
activity, Free [4]: 100
activity, NiCl2 (1 mM) [4]: 99

CC=CC#N [Crotononitrile]
Relative activity (%) [3, 7]: 87.4%
activity, Free [4]: 100
activity, NiCl2 (1 mM) [4]: 103

O=S(=O)([O-])[O-].[Zn+2] [ZnSO4]
Relative activity (%) [2]: 84.1%

N[C@@H]1CONC1=O [D-Cycloserine]
Relative activity (%) [1, 6]: 94.8%

CC(C)C#N [Isobutyronitrile]
Relative activity (%) [3, 8]: 40.9%

[N-]=[N+]=[N-].[Na+] [NaN3]
Relative activity (%) [1]: 98.5%

CC#N [Acetonitrile]
Relative activity (%) [3]: 14.6%

C=C(C)C#N [Methacrylonitrile]
Relative activity (%) [3, 7]: 93.7%

CCC#N [Propionitrile]
Relative activity (%) [3, 7]: 173%

NC(N)=O [Urea]
Relative activity (%) [1, 6]: 95.7%

CCCC#N [n-Butyronitrile]
Relative activity (%) [3, 8]: 379%
substrate suitability ([3]; purified nitrile hydratase): suitable substrates
activity, Free [4]: 100
activity, NiCl2 (1 mM) [4]: 94

[Cl][Hg][Cl] [HgCl2]
Relative activity (%) ([2]; metal 1.0 mM, Free = 100, incubated 20° C. 10 minutes): 7.48%
effect on enzyme activity (words) ([2]; metal ions): inhibited
effect on enzyme activity (words) ([2]; metal ions, listed as Hg^++): markedly inhibited
